Values joined by “and” are separate entries in the source; they are usually repeats but may differ in a detail not shown here. Identical values can stand only once. Toxic doses and inconclusive results are not listed. No stated cut-off is given here; in the data, active means T/C of 150% or more; inactive means T/C below 125%.
System: L1210 leukemia ip in BDF1 mice, survival T/C
Experiment: NCI In Vivo Anticancer Drug Screen. Data for tumor model L1210 Leukemia (intraperitoneal) in B6D2F1 (BDF1) mice
Details: endpoint: mean survival time, higher = longer survival
Outline: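 Survival endpoint. Drug-treated group vs vehicle group, expressed as T divided by C. Tumor passaged by transplantation.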

[1] = dose: 50.0 mg/kg/injection, schedule: Q01DX001 (ip), vehicle: saline
[2] = dose: 100.0 mg/kg/injection, schedule: Q01DX001 (ip), vehicle: saline
[3] = dose: 75.0 mg/kg/injection, schedule: Q01DX001 (ip), vehicle: saline
[4] = dose: 150.0 mg/kg/injection, schedule: Q01DX001 (ip), vehicle: saline
[5] = dose: 25.0 mg/kg/injection, schedule: Q01DX009 (ip), vehicle: saline with Tween-80
[6] = dose: 100.0 mg/kg/injection, schedule: Q01DX001 (ip), vehicle: other
[7] = dose: 200.0 mg/kg/injection, schedule: Q01DX001 (ip), vehicle: other
[8] = dose: 400.0 mg/kg/injection, schedule: Q01DX001 (ip), vehicle: other
[9] = dose: 100.0 mg/kg/injection, schedule: Q01DX009 (ip), vehicle: Klucel (hydroxypropylcellulose) (HPC)
[10] = dose: 200.0 mg/kg/injection, schedule: Q01DX009 (ip), vehicle: Klucel (hydroxypropylcellulose) (HPC)
[11] = dose: 100.0 mg/kg/injection, schedule: Q04DX003 (ip), vehicle: saline with Tween-80
[12] = dose: 200.0 mg/kg/injection, schedule: Q04DX003 (ip), vehicle: saline with Tween-80
[13] = dose: 100.0 mg/kg/injection, schedule: Q01DX009 (ip), vehicle: saline with Tween-80
[14] = dose: 200.0 mg/kg/injection, schedule: Q01DX009 (ip), vehicle: saline with Tween-80
[15] = dose: 400.0 mg/kg/injection, schedule: Q01DX009 (ip), vehicle: saline with Tween-80
[16] = dose: 200.0 mg/kg/injection, schedule: Q01DX001 (ip), vehicle: saline
[17] = dose: 400.0 mg/kg/injection, schedule: Q01DX001 (ip), vehicle: saline
[18] = dose: 400.0 mg/kg/injection, schedule: Q04DX003 (ip), vehicle: saline with Tween-80
[19] = dose: 100.0 mg/kg/injection, schedule: Q01DX001 (ip), vehicle: carboxymethylcellulose (CMC)
[20] = dose: 200.0 mg/kg/injection, schedule: Q01DX001 (ip), vehicle: carboxymethylcellulose (CMC)
[21] = dose: 400.0 mg/kg/injection, schedule: Q01DX001 (ip), vehicle: carboxymethylcellulose (CMC)
[22] = dose: 100.0 mg/kg/injection, schedule: Q04DX003 (ip), vehicle: saline
[23] = dose: 200.0 mg/kg/injection, schedule: Q04DX003 (ip), vehicle: saline

Measured: T/C

Cc1cc2nnc(C)n2c2ccccc12
inactive: [1] 103 % of control | [2] 103 % of control

Cc1cccc(C)c1NC(=O)C(Cl)Cl
inactive: dose: 50.0 mg/kg/injection, schedule: Q01DX Z (ip), vehicle: methylcellulose (MC) 109 % of control | dose: 73.0 mg/kg/injection, schedule: Q01DX Z (ip), vehicle: methylcellulose (MC) 107 % of control | dose: 112.0 mg/kg/injection, schedule: Q01DX Z (ip), vehicle: methylcellulose (MC) 101 % of control | dose: 168.0 mg/kg/injection, schedule: Q01DX Z (ip), vehicle: methylcellulose (MC) 101 % of control

O=C(CC(C#Cc1ccccc1)c1ccccc1)c1ccccc1 (centres undefined)
inactive: dose: 75.0 mg/kg/injection, schedule: Q04DX003 (ip), vehicle: Klucel (hydroxypropylcellulose) (HPC) 97 % of control | dose: 150.0 mg/kg/injection, schedule: Q04DX003 (ip), vehicle: Klucel (hydroxypropylcellulose) (HPC) 101 % of control | dose: 300.0 mg/kg/injection, schedule: Q04DX003 (ip), vehicle: Klucel (hydroxypropylcellulose) (HPC) 94 % of control

CC(C)CCCC(C)CCC1C(=O)NC(=O)NC1=O (centres undefined)
inactive: [3] 90 % of control | [4] 88 % of control

COC(=O)c1ccccc1N1C(=O)C=CC1=O
inactive: dose: 6.25 mg/kg/injection, schedule: Q01DX009 (ip), vehicle: saline with Tween-80 97 % of control | dose: 12.5 mg/kg/injection, schedule: Q01DX009 (ip), vehicle: saline with Tween-80 98 % of control | [5] 103 % of control

O=Cc1c(Cl)n(C(=O)c2ccccc2)c2ccccc12
inactive: dose: 50.0 mg/kg/injection, schedule: Q04DX002 (ip), vehicle: Klucel (hydroxypropylcellulose) (HPC) 90 % of control | dose: 100.0 mg/kg/injection, schedule: Q04DX002 (ip), vehicle: Klucel (hydroxypropylcellulose) (HPC) 87 % of control | dose: 200.0 mg/kg/injection, schedule: Q04DX002 (ip), vehicle: Klucel (hydroxypropylcellulose) (HPC) 97 % of control

CCCCCNC(=O)CC(O)C(=O)NCCCCC (centres undefined)
inactive: [6] 87 % of control | [7] 98 % of control | [8] 96 % of control

CC(=Nc1ccc(Br)cc1)c1c(O)cc(C)oc1=O
inactive: [9] 100 % of control | [10] 91 % of control | dose: 400.0 mg/kg/injection, schedule: Q01DX009 (ip), vehicle: Klucel (hydroxypropylcellulose) (HPC) 117 % of control

c1ccc2sc(SCSc3nc4ccccc4s3)nc2c1
inactive: dose: 50.0 mg/kg/injection, schedule: Q04DX003 (ip), vehicle: saline with Tween-80 93 % of control | [11] 90 % of control | [12] 100 % of control

CCC(=O)c1ccccc1NC(C)=O
inactive: [13] 97 % of control | [14] 96 % of control | [15] 101 % of control

CC(=O)Nc1cccc(OCc2ccc([N+](=O)[O-])cc2)c1
inactive: dose: 50.0 mg/kg/injection, schedule: Q01DX009 (ip), vehicle: Klucel (hydroxypropylcellulose) (HPC) 111 % of control | [9] 97 % of control | [10] 97 % of control

O/N=c1\ncn(O)c2nc[nH]c12
inactive: [3] 93 % of control | [4] 103 % of control | dose: 300.0 mg/kg/injection, schedule: Q01DX001 (ip), vehicle: saline 93 % of control | dose: 300.0 mg/kg/injection, schedule: Q01DX009 (ip), vehicle: saline 123 % of control

O=C(OC(=Nc1ccccc1)N(c1ccccc1)c1ccccc1)c1ccccc1
inactive: [2] 91 % of control | [16] 95 % of control | [17] 94 % of control

CCCCCCCCCCCCNC(=O)C[N+](C)(C)Cc1ccc2c(c1)CCCC2
inactive: dose: 2.5 mg/kg/injection, schedule: Q01DX009 (ip), vehicle: saline with Tween-80 106 % of control | dose: 5.0 mg/kg/injection, schedule: Q01DX009 (ip), vehicle: saline with Tween-80 94 % of control

ClCCCC1(c2ccc(Oc3ccccc3)cc2)OCCO1
inactive: [13] 88 % of control | [11] 105 % of control | [14] 92 % of control | [12] 95 % of control | [15] 93 % of control | [18] 94 % of control

COC(=O)c1cc(C)cc(OC(=S)N(C)C)c1C
inactive: [19] 96 % of control | dose: 100.0 mg/kg/injection, schedule: Q01DX009 (ip), vehicle: carboxymethylcellulose (CMC) 103 % of control | [20] 93 % of control | dose: 200.0 mg/kg/injection, schedule: Q01DX009 (ip), vehicle: carboxymethylcellulose (CMC) 98 % of control | [21] 96 % of control | dose: 400.0 mg/kg/injection, schedule: Q01DX009 (ip), vehicle: carboxymethylcellulose (CMC) 93 % of control | dose: 800.0 mg/kg/injection, schedule: Q01DX009 (ip), vehicle: carboxymethylcellulose (CMC) 103 % of control

Nc1ccc(-n2cnc3c(=O)[nH]c(N)nc32)cc1
inactive: [11] 98 % of control | [12] 98 % of control | [18] 92 % of control

CCC1(C)CCC2(C)C(CCC3C2CCCC3(C)C(=O)O)C1 (centres undefined)
inactive: dose: 12.5 mg/kg/injection, schedule: Q04DX002 (ip), vehicle: saline with Tween-80 96 % of control | dose: 25.0 mg/kg/injection, schedule: Q04DX002 (ip), vehicle: saline with Tween-80 96 % of control | dose: 50.0 mg/kg/injection, schedule: Q04DX002 (ip), vehicle: saline with Tween-80 89 % of control

CCOC(=O)C1(C)OCCO1
inactive: dose: 100.0 mg/kg/injection, schedule: Q01DX009 (ip), vehicle: saline 101 % of control | [22] 103 % of control | dose: 200.0 mg/kg/injection, schedule: Q01DX009 (ip), vehicle: saline 100 % of control | [23] 96 % of control | dose: 400.0 mg/kg/injection, schedule: Q01DX009 (ip), vehicle: saline 95 % of control | dose: 400.0 mg/kg/injection, schedule: Q04DX003 (ip), vehicle: saline 99 % of control

COc1cc2c(c(Cl)c1N)-c1ccccc1C2
inactive: dose: 177.0 mg/kg/injection, schedule: Q01DX001 (ip), vehicle: carboxymethylcellulose (CMC) 104 % of control | dose: 266.0 mg/kg/injection, schedule: Q01DX001 (ip), vehicle: carboxymethylcellulose (CMC) 98 % of control

COc1cc(N)c(OC)nn1
inactive: [6] 105 % of control | [7] 96 % of control | [8] 93 % of control

CCOC(=O)C(NC(=O)c1ccccc1)C(=O)OCC
inactive: [1] 96 % of control | [2] 96 % of control | [16] 96 % of control | [17] 96 % of control

O=C1CCSC(=O)N1SC(Cl)(Cl)Cl
inactive: dose: 6.0 mg/kg/injection, schedule: Q04DX003 (ip), vehicle: saline with Tween-80 88 % of control | dose: 12.0 mg/kg/injection, schedule: Q01DX009 (ip), vehicle: saline with Tween-80 94 % of control | dose: 12.0 mg/kg/injection, schedule: Q04DX003 (ip), vehicle: saline with Tween-80 101 % of control | [5] 92 % of control | dose: 25.0 mg/kg/injection, schedule: Q04DX003 (ip), vehicle: saline with Tween-80 97 % of control and 101 % of control | dose: 50.0 mg/kg/injection, schedule: Q01DX009 (ip), vehicle: saline with Tween-80 93 % of control and 90 % of control | [22] 98 % of control | [23] 93 % of control

CCOC(=O)c1c[nH]c2c(c1=O)c(=O)n(C)c(=O)n2C
inactive: dose: 100.0 mg/kg/injection, schedule: Q01DX001 (ip), vehicle: Klucel (hydroxypropylcellulose) (HPC) 97 % of control | dose: 200.0 mg/kg/injection, schedule: Q01DX001 (ip), vehicle: Klucel (hydroxypropylcellulose) (HPC) 101 % of control | dose: 400.0 mg/kg/injection, schedule: Q01DX001 (ip), vehicle: Klucel (hydroxypropylcellulose) (HPC) 94 % of control

Cc1ccc(Sc2cccc3c2C(=O)c2c(Sc4ccc(C)cc4)cccc2C3(Br)c2ccccc2)cc1
inactive: [13] 87 % of control | [11] 95 % of control | [12] 97 % of control | [15] 97 % of control | [18] 88 % of control

CNc1ccc(/C=C2\C=Cc3ccccc32)cc1I
inactive: [19] 95 % of control | [20] 95 % of control | [21] 101 % of control
